From ChEMBL document CHEMBL1131902, “Reversal of resistance in multidrug resistance protein (MRP1)-overexpressing cells by LY329146” (Bioorg Med Chem Lett, 1999)
≈ marks a conversion by molar mass, not a printed value.

How the values were obtained:
HL-60 [1] = assay: Cytotoxicity tested against HL60/Vinc cell line; assay type: functional, cell-based; details: Homo sapiens
HL-60 [2] = assay: Cytotoxicity tested against drug sensitive HL60/S cell line; assay type: functional, cell-based; details: Homo sapiens
HL-60 [3] = assay: Cytotoxicity against drug resistant HL60/ADR cell line; assay type: functional, cell-based; details: Homo sapiens
HL-60 [4] = assay: Ability to enhance the cytotoxicity of doxorubicin against […] HL60/ADR cell line expressed as reversal factor (RF) at 1 uM; assay type: functional, Homo sapiens
HL-60 [5] = assay: Cytotoxicity tested against drug resistant HL60/ADR cell line at 1 uM dose of LY-117018; assay type: functional, cell-based; details: Homo sapiens
HL-60 [6] = assay: Ability to enhance the cytotoxicity of doxorubicin against […] HL60/ADR cell line expressed as reversal factor (RF) at 5 uM; assay type: functional, Homo sapiens
HL-60 [7] = assay: Cytotoxicity tested against drug resistant HL60/ADR cell line at 5 uM dose of LY-117018; assay type: functional, cell-based; details: Homo sapiens
HL-60 [8] = assay: Ability to inhibit 50 nM Leukotriene C4 (LTC4) uptake into HL60/ADR membrane vesicles; assay type: functional, cell-based; details: Homo sapiens
HL-60 [9] = assay: Cytotoxicity tested against drug resistant HL60/ADR cell line at 0.5 uM dose of LY-329146; assay type: functional, cell-based; details: Homo sapiens
HL-60 [10] = assay: Cytotoxicity against HL60/Vinc cell line at 0.5 uM dose of LY-329146; assay type: functional, cell-based; details: Homo sapiens
HeLa [11] = assay: Cytotoxicity tested against Hela T5 cells at 2.5 uM dose of LY-329146; assay type: functional, cell-based; details: Homo sapiens
HeLa [12] = assay: Cytotoxicity tested against Hela T5 cells at 1 uM dose of LY-329146; assay type: functional, cell-based; details: Homo sapiens
HL-60 [13] = assay: Cytotoxicity tested against drug resistant HL60/ADR cell line at 5 uM dose of LY-329146; assay type: functional, cell-based; details: Homo sapiens
HL-60 [14] = assay: Cytotoxicity tested against HL60/Vinc cell line at 1 uM dose of LY-329146 at 1 uM; assay type: functional, cell-based; details: Homo sapiens
HL-60 [15] = assay: Cytotoxicity against drug sensitive HL60/S cell line at 0.5 uM dose of LY-329146; assay type: functional, cell-based; details: Homo sapiens
HL-60 [16] = assay: Cytotoxicity tested against HL60/Vinc cell line at 5 uM dose of LY-329146; assay type: functional, cell-based; details: Homo sapiens
HeLa [17] = assay: Cytotoxicity tested against Hela C1 cells at 1 uM dose of LY-329146; assay type: functional, cell-based; details: Homo sapiens
HL-60 [18] = assay: Cytotoxicity against drug resistant HL60/ADR cell line at 1 uM dose of LY-329146; assay type: functional, cell-based; details: Homo sapiens
HL-60 [19] = assay: Cytotoxicity tested against drug sensitive HL60/S cell line at 5 uM dose of LY-329146; assay type: functional, cell-based; details: Homo sapiens
HL-60 [20] = assay: Cytotoxicity tested against drug sensitive HL60/S cell line at 1 uM dose of LY-329146; assay type: functional, cell-based; details: Homo sapiens
HeLa [21] = assay: Cytotoxicity tested against Hela C1 cells at 2.5 uM dose of LY-329146; assay type: functional, cell-based; details: Homo sapiens
HeLa [22] = assay: Ratio of IC50 of oncolytic and its modulator against Hela T5 cells at 1 uM dose of LY-329146; assay type: functional, Homo sapiens
HeLa [23] = assay: Ratio of IC50 of oncolytic and its modulator against Hela C1 cells at 1 uM dose of LY-329146; assay type: functional, Homo sapiens
HeLa [24] = assay: Ratio of IC50 of oncolytic and its modulator against Hela C1 cells at 2.5 uM dose of LY-329146; assay type: functional, Homo sapiens
HeLa [25] = assay: Ratio of IC50 of oncolytic and its modulator against Hela T5 cells at 2.5 uM dose of LY-329146; assay type: functional, Homo sapiens
HeLa [26] = assay: Cytotoxicity tested against Hela C1 cells; assay type: functional, cell-based; details: Homo sapiens
HeLa [27] = assay: Cytotoxicity tested against Hela T5 cells; assay type: functional, cell-based; details: Homo sapiens

## COc1cccc2c1C(=O)c1c(O)c3c(c(O)c1C2=O)C[C@@](O)(C(=O)CO)C[C@@H]3O[C@H]1C[C@H](N)[C@H](O)[C@H](C)O1 [DOXORUBICIN]
HL-60 [1]
  IC50: 1.88 µg/mL (≈ 3.46 µM)
HL-60 [2]
  IC50: 0.028 µg/mL (≈ 0.0515 µM)
HL-60 [3]
  IC50: 2.97 µg/mL (≈ 5.46 µM)

## COc1cccc2c1C(=O)c1c(O)c3c(c(O)c1C2=O)C[C@@](O)(C(=O)CO)C[C@@H]3O[C@H]1C[C@H](N)[C@H](O)[C@H](C)O1.O=C(c1ccc(OCCN2CCCC2)cc1)c1c(-c2ccc(O)cc2)sc2cc(O)ccc12
HL-60 [4]
  RF: 1
HL-60 [5]
  IC50: 3.2 µg/mL
HL-60 [6]
  RF: 3
HL-60 [7]
  IC50: 1 µg/mL

## CS(=O)(=O)N(c1ccc(-c2sc3cc(O)ccc3c2C(=O)c2ccc(OCCN3CCCCC3)cc2)cc1)S(C)(=O)=O
HL-60 [8]
  IC50: 0.8 µg/mL (≈ 1.27 µM)

## COc1cccc2c1C(=O)c1c(O)c3c(c(O)c1C2=O)C[C@@](O)(C(=O)CO)C[C@@H]3O[C@H]1C[C@H](N)[C@H](O)[C@H](C)O1.CS(=O)(=O)N(c1ccc(-c2sc3cc(O)ccc3c2C(=O)c2ccc(OCCN3CCCCC3)cc2)cc1)S(C)(=O)=O
HL-60 [9]
  IC50: 1.71 µg/mL
HL-60 [10]
  IC50: 1.44 µg/mL
HeLa [11]
  IC50: 0.241 µg/mL
HeLa [12]
  IC50: 1.06 µg/mL
HL-60 [13]
  IC50: 0.224 µg/mL
HL-60 [14]
  IC50: 0.444 µg/mL
HL-60 [15]
  IC50: 0.023 µg/mL
HL-60 [16]
  IC50: 0.027 µg/mL
HeLa [17]
  IC50: 0.315 µg/mL
HL-60 [18]
  IC50: 1.11 µg/mL
HL-60 [19]
  IC50: 0.011 µg/mL
HL-60 [20]
  IC50: 0.018 µg/mL
HeLa [21]
  IC50: 0.213 µg/mL

## CN(C)C(=O)CCSC(SCCC(=O)O)c1cccc(/C=C/c2ccc3ccc(Cl)cc3n2)c1 (configuration not stated) [MK-571]
HL-60 [8]
  IC50: 0.5 µg/mL (≈ 0.971 µM)

## CC[C@]1(O)CC2CN(CCc3c([nH]c4ccccc34)[C@@](C(=O)OC)(c3cc4c(cc3OC)N(C=O)C3C45CCN4CC=C[C@@](CC)(C(OC(C)=O)[C@]3(O)C(=O)OC)[C@H]45)C2)C1.CS(=O)(=O)N(c1ccc(-c2sc3cc(O)ccc3c2C(=O)c2ccc(OCCN3CCCCC3)cc2)cc1)S(C)(=O)=O (some centres not stated)
HeLa [11]
  IC50: 0.013 µg/mL
HeLa [12]
  IC50: 0.031 µg/mL
HeLa [22]
  RF: 1.6
HeLa [23]
  RF: 2
HeLa [24]
  RF: 2.8
HeLa [17]
  IC50: 0.007 µg/mL
HeLa [21]
  IC50: 0.005 µg/mL
HeLa [25]
  RF: 3.9

## CC[C@]1(O)C[C@H]2CN(CCc3c([nH]c4ccccc34)[C@@](C(=O)OC)(c3cc4c(cc3OC)N(C=O)[C@H]3[C@@](O)(C(=O)OC)[C@H](OC(C)=O)[C@]5(CC)C=CCN6CC[C@]43[C@@H]65)C2)C1 [VINCRISTINE]
HeLa [26]
  IC50: 0.014 µg/mL (≈ 0.017 µM)
HeLa [27]
  IC50: 0.051 µg/mL (≈ 0.0618 µM)
